EP4578449A1, “PHARMACEUTICAL COMBINATION OF FAK INHIBITOR AND MICROTUBULE INHIBITOR AND USE THEREOF” (Inxmed (Nanjing) Co., Ltd., priority 2022, dated 2024)

Experiments:
breast cancer 4T1 cells = assay: Subcutaneous allograft tumor model of breast cancer 4T1 cells in BALB/c mice; assay type: in vivo
Excerpt: Mice: Female BALB/c mice aged 6-8 weeks were purchased from SHANGHAI SLAC LABORATORY ANIMAL CO. LTD. The assay began after the animals were adapted to the assay environment upon arrival. The animals were kept in IVC (independent ventilation system) cages (5 per cage) in an SPF animal room. All cages, padding and drinking water must be sterilized before use. All assay personnel should wear protective clothing and latex gloves when operating in the animal room. Cages, feed and drinking water were replaced twice a week. The feeding environment and lighting conditions were as follows: • Temperature: 20-26 °C • Humidity: 40-70% • Lighting period: 12 hours light, 12 hours no light • Cages: Made of polycarbonate, 300 mm × 180 mm × 150 mm. The padding was corn cobs, which was replaced twice a week. • Food: The assay animals had free access to food (dry pelleted food sterilized by irradiation) throughout the assay period. • Drinking water: Assay animals were free to drink sterile water. • Cage identification: The animal information card for each cage should indicate the number of animals in the cage, gender, strain, receipt date, dosing regimen, assay number, group and start date of the assay. • Animal identification: Assay animals were identified with ear tags.
Breast cancer cell 4T1 (source: Nanjing Cobioer Biotechnology Co., Ltd., catalog number: CBP60352) was maintained and passaged by INXMED (Nanjing) Co., Ltd. The cells were cultured in a monolayer in vitro in RPMI-1640 medium with 10% fetal bovine serum in a 37 °C, 5% CO2 incubator. Trypsin-EDTA was used for routine digestion and passage treatment two to three times a week. When the cells were in the exponential growth phase and the adherent confluence reached 80%-90%, the cells were harvested and plated.
0.1 mL of cell suspension containing 2 x 10^5 cells was subcutaneously inoculated on the right back of each mouse. When the tumor volume reached ~52 mm^3 (10th day after cell inoculation), the mice were randomly divided into groups for drug administration according to the tumor volume. Table 9. Dosing regimen of the test substance in 4T1 mouse transplant tumor model
The formulation and any modifications of this assay protocol had been assessed and approved by the IACUC of ArrayBridge. The use and welfare of assay animals were carried out in accordance with AAALAC regulations. The health status and mortality of animals were monitored daily, with routine checks including observation of tumor growth and the impact of drug treatment on the animals' daily behavior, such as activity, food and water intake (estimated by visual inspection), changes in body weight, physical signs, or any other abnormalities. The number of animal deaths and side effects in each group were recorded based on the number of animals in each group.
If the animal's health condition continued to deteriorate, or if the tumor volume exceeded 3,000 mm^3, or there was a serious disease or pain, euthanasia should be carried out. In the following cases, the veterinarian was notified and euthanasia was performed: obvious weight loss, i.e., weight loss greater than 20%; inability to freely eat and drink; the average tumor volume of the control group reached 2000 mm^3, the assay was terminated.
Tumor diameters were measured three times a week using calipers. The tumor volume was calculated using the formula: V = 0.5 × a × b^2, where a and b represent the long and short diameters of the tumor, respectively.
Based on the tumor volume on the first day after grouping, the tumor growth inhibition rate TGI (%) was calculated according to the following formula: TGI (%) = [1 - (average tumor volume of a treatment group - average tumor volume of the treatment group at the beginning of treatment) / (average tumor volume of the solvent control group - average tumor volume of the solvent control group at the beginning of treatment)] × 100%. […]

[1] = system: mouse colon cancer CT26 cells; assay: Docetaxel/Eribulin/Paclitaxel and Defactinib: microscopy and CRT/Annexin-V/PI flow cytometry; assay type: cell-based; conditions: 48 hours, Defactinib 5 µM, Docetaxel 0.3 µM, Eribulin 0.3 µM, Paclitaxel 6 µM, alone or combined with Defactinib
Protocol: CT26 cells were cultured in monolayer in vitro under the following conditions: RPMI-1640 medium with 10% fetal bovine serum, 37°C, 5% CO2. Trypsin was used for routine digestion and passage treatment two to three times a week. When the cells were in the exponential growth phase and the adherent confluence reached 80%-90%, the cells were harvested and plated.
CT26 cells were digested with trypsin, and then the cells were collected and counted. Based on the counting results, the cells were diluted with the corresponding complete culture medium to a concentration of 50,000 cells per milliliter. Then the cells were plated in 12-well cell culture plates, with 2 ml of cell suspension per well, i.e., 100,000 cells.
After plating, the cells were cultured in a 37°C and 5% CO2 incubator.
After 24 hours of plating, the test compounds Docetaxel, Eribulin, Paclitaxel and Defactinib were added to different wells, respectively.
After 48 hours of drug action, the cells were photographed using a microscope, and then trypsinized and collected for flow cytometry staining.
The cells were washed twice with flow buffer (DPBS + 2% FBS). 0.5 µL of AF647 Anti-Calreticulin Antibody was added to each well, and mixed well. The cells were incubated at 4°C in the dark for 20 min. After washing once with flow buffer, 195 µL of Annexin-V-FITC binding solution was added, and the cells were gently mixed well. 5 µL of Annexin-V-FITC antibody was added. After further mixing, 10 µL of PI dye was added and mixed well. The cells were incubated at room temperature in the dark for 15 min. The cells were then subjected to flow cytometry.
After the assay, the cell positive rate was analyzed by Flowjo (V10) software.

colon cancer CT26 cells = assay: IN10018 and Docetaxel: microscopy and CRT/Annexin-V/PI flow cytometry; assay type: cell-based, mouse; conditions: 48 hours, IN10018 5 µM, Docetaxel 0.1 µM, alone or combined
Protocol: CT26 cells (Institute of Cell Biology, Chinese Academy of Sciences) were cultured with RPMI-1640 (Shanghai Basalmedia, catalog number: L210KJ, batch number: F210916) + 10% FBS (Gibco, catalog number: 10099-141c, batch number: 2158737cp), and passaged twice. When the cells were in good condition, they were placed in a 24-well plate. After 24 hours of cell spreading, four groups were set up. The first group was the control group, in which culture medium was added; the second group was IN10018 at a concentration of 5µM; the third group was Docetaxel (MCE, classification number: HY-B0011, batch number: 111613) with a concentration of 0.1µM; and the fourth group was the combination group of IN10018 (5 µM) and Docetaxel (0.1µM). The drugs were mixed and cultured in a 5 % CO2 incubator at 37°C for 48 hours.
After 48 hours of drug action, the cells were observed and photographed under a microscope. The photos were saved. Then the cells were collected for flow cytometry, and the cells were washed twice with flow buffer (PBS + 2% FBS). 0.5 µl of AF647 anti-calreticulin antibody (abcam, catalog number: ab196159, batch number: CR33676773) was added to each well, and fully mixed. The cells were incubated at 4 °C for 20 minutes in the dark. […] The mixture was incubated at room temperature in the dark for 15 minutes, and then analyzed on a flow cytometer.

Q: Which results are given for `CC(=O)O[C@@]12CO[C@@H]1C[C@H](O)[C@@]1(C)C(=O)[C@H](O)C3=C(C)[C@@H](OC(=O)[C@H](O)[C@@H](NC(=O)OC(C)(C)C)c4ccccc4)C[C@@](O)([C@@H](OC(=O)c4ccccc4)[C@H]21)C3(C)C` [Docetaxel]?
A: Tumor volume on day 0 (breast cancer 4T1 cells; baseline at grouping (10th day after inoculation), mean ± standard error, 6 mice per group): 51.1 ± 13.2 mm^3; TGI (breast cancer 4T1 cells; day 21 after administration, vs control group, DTX 10 mg/kg i.p. BIW, IN10018 25 mg/kg p.o. QD, MAX10181 120 mg/kg p.o. BID): 14.9%; Tumor volume on day 21 (breast cancer 4T1 cells; day 21 after administration, DTX 10 mg/kg i.p. BIW, IN10018 25 mg/kg p.o. QD, MAX10181 120 mg/kg p.o. BID, mean ± standard error): 1818.7 ± 644.0 mm^3; cell status (cell death) under a microscope [1]: obvious; cell status under a microscope (colon cancer CT26 cells): poor
